Earlier results, collected in patent publication US6747006B2, “Use of GLP-1 or analogs in treatment of myocardial infarction” (Eli Lilly and Company, priority 1996, dated 2004).

Tested on: diabetic patients during acute myocardial infarction
Conditions: insulin and glucose infusion, then subcutaneous multidose insulin; compared with control group of diabetics without insulin treatment

Insulin: insulin given as control by continuous infusion or subcutaneous injection
lowering of mortality during the year following myocardial infarction: 30%
